Measured values as given in patent US20040037806A1, “Aldosterone blocker therapy to prevent or treat inflammation-related disorders” (Pharmacia Corporation, priority 2002, published 2004).
Entries after “also recorded” stand apart in the source; their conditions may differ.

Tests used:
Assay type in all cases: in vivo, rat
[1] = system: Monocyte Chemoattractant Protein-1 (MCP-1); assay: Assay C: MCP-1 mRNA, TaqMan; settings: 7, 14, 30 days; aldosterone+salt alone or with eplerenone 100 mg/kg/day
Experimental: (§1) The procedure of Assay B was expanded upon in a further study. […] Myocardial tissue from animals in each treatment group was examined after 7, 14, or 30 days of treatment.
(§2) Potassium chloride supplementation was added to the saline solution in order to prevent the potential hypokalemia associated with aldosterone excess.
(§3) Treatment At the time of the surgery, an Alzet 2002 osmotic minipump (Alza Corp., Palo Alto, Calif.) containing either vehicle (9% ethanol/87% propylene glycol/4% dH2O) or 1.0 mg/mL d-aldosterone (Sigma Chemical, St. Louis, Mo.) was inserted subcutaneously at the nape of the neck. Aldosterone was administered at a dose of 0.75 µg/hour. […]
(§4) The fluorogenic 5′-nuclease assay (TaqMan PCR) using Applied Biosystems' 7700 Sequence Detection System (Applied Biosystems, Foster City, Calif.) allowed for real time detection/quantitation of a specific gene by monitoring the increase in fluorescence of a gene-specific, dye-labeled oligonucleotide probe. […] When the probe was annealed to the target gene, fluorescence of 6FAM was prevented by the close proximity of TAMRA. The exonuclease activity of Taq polymerase released the dyes from the oligonucleotide probe by displacing the probe from the target sequence resulting in fluorescence excitation in direct proportion to the amount of target message present. […]

[2] = Assay C: histopathologic analysis, semi-quantitative myocardial injury score 0 to 4; settings: 7, 14 and 30 days; aldosterone+salt alone or with eplerenone 100 mg/kg/day
Experimental: The procedure of Assay B was expanded upon in a further study. […] Myocardial tissue from animals in each treatment group was examined after 7, 14, or 30 days of treatment. […] Lesions were preceded by the expression and progressive upregulation of proinflammatory molecules. […] Prior to surgery the animals were individually weighed and placed in one of the following groups: […] Potassium chloride supplementation was added to the saline solution in order to prevent the potential hypokalemia associated with aldosterone excess. Treatment At the time of the surgery, an Alzet 2002 osmotic minipump (Alza Corp., Palo Alto, Calif.) containing either vehicle (9% ethanol/87% propylene glycol/4% dH2O) or 1.0 mg/mL d-aldosterone (Sigma Chemical, St. Louis, Mo.) was inserted subcutaneously at the nape of the neck. Aldosterone was administered at a dose of 0.75 µg/hour. […] Animals were sacrificed from each group (n=8-13) after 7, 14, or 30 days of treatment. The equatorial regions of the heart were routinely processed into paraffin with an automated tissue processor (Hypercenter XP, Shandon/Lipshaw Inc., Pittsburgh, Pa.) and embedded into fresh paraffin apical side down (Shandon Embedding Center, Shandon/Lipshaw Inc.). […] Semi-quantification of myocardial injury was performed as described previously with minor modifications (7). […]

[3] = system: Vascular Cell Adhesion Molecule-1 (VCAM-1); assay: Assay C: VCAM-1 mRNA, TaqMan; settings: aldosterone+salt alone or with eplerenone 100 mg/kg/day; increase at day 30 did not reach statistical significance
Experimental: as §1, §2, §3, §4

[4] = system: Intercellular Adhesion Molecule-1 (ICAM-1); assay: Assay C: ICAM-1 mRNA, TaqMan; settings: aldosterone+salt alone or with eplerenone 100 mg/kg/day; 7, 14, 30 days
Experimental: as §1, §2, §3, §4

Compound: C[C@]12CCC(=O)C=C1CC[C@@H]1[C@@H]2[C@@H](O)C[C@]2(C=O)[C@@H](C(=O)CO)CC[C@@H]12 [aldosterone]
- MCP-1 mRNA expression in myocardium [1]: significantly increased
- Myocardial tissue damage (histopathology) [2]: No vascular or myocardial lesions; also recorded: focal arterial and myocardial alterations were observed starting at 14 days
- VCAM-1 gene expression in myocardium [3]: increased two-fold at day 30
- ICAM-1 mRNA expression in myocardium [4]: upregulated at day 14 and 30

Compound: COC(=O)[C@@H]1CC2=CC(=O)CC[C@]2(C)[C@@]23O[C@@H]2C[C@@]2(C)[C@@H](CC[C@@]24CCC(=O)O4)[C@H]13 [eplerenone]
- MCP-1 mRNA expression in myocardium [1]: significantly reduced; also recorded: inhibition of early time-course expression of myocardial MCP-1
- Myocardial tissue damage (histopathology) [2]: markedly attenuated myocardial injury at all time points
- VCAM-1 gene expression in myocardium [3]: significantly reduced; also recorded: inhibition of early time-course expression of myocardial ICAM-1 and VCAM-1
- ICAM-1 mRNA expression in myocardium [4]: significantly reduced; also recorded: inhibition of early time-course expression of myocardial ICAM-1 and VCAM-1
